Activity calls are given as the source filed them.
Tests used:
[1] = target: Glyceraldehyde-3-phosphate dehydrogenase (Homo sapiens, UniProt P04406)
[2] = target: T1, Alkaline phosphatase, tissue-nonspecific isozyme (Homo sapiens, UniProt P05186); assay: potency against alkaline phosphatase TNAP – biochemical, luminescent, dose response, SAR follow-up (AID 1056)
T1 sequence (P05186 whole entry): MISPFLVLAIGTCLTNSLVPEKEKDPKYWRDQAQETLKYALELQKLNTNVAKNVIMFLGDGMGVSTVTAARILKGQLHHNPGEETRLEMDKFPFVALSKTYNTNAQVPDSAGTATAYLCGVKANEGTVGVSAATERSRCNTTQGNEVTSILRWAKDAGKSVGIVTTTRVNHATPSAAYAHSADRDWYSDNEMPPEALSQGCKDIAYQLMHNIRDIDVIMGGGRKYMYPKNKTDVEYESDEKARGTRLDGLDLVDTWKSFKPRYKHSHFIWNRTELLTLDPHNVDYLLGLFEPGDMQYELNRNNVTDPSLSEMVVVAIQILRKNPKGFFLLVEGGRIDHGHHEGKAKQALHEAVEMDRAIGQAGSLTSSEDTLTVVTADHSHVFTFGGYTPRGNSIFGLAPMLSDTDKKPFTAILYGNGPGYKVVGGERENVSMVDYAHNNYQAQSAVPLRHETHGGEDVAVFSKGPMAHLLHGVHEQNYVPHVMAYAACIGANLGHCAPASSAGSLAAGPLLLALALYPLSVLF

fMet-Leu-Phe receptor = target: T2, fMet-Leu-Phe receptor (Homo sapiens, UniProt P21462); assay: formyl peptide receptor binders – dose response (AID 519); type: functional
T2 sequence (P21462 whole entry): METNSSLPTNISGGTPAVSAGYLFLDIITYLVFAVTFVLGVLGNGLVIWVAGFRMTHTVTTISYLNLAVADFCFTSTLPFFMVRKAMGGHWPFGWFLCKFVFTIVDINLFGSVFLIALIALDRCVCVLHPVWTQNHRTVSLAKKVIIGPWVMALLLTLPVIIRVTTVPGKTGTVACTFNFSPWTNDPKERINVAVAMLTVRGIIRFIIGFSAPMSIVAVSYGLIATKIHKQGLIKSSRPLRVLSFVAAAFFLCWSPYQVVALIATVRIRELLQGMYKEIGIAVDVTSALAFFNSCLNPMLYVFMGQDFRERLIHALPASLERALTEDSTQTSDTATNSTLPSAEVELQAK

[3] = target: G-protein coupled receptor 55 (Homo sapiens, UniProt Q9Y2T6); assay: inhibition of LPI-stimulated GPR55 beta-arrestin translocation – imaging, U2OS, beta-arrestin-GFP, LPI agonist, primary screen (AID 2013); type: functional;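 also: antagonist potency measured as reduced agonist-driven arrestin aggregation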
Prothrombin = Prothrombin (Homo sapiens, UniProt P00734); assay: Thrombin 1536 HTS Dose Response Confirmation. [Related pubchem assays: 1046 (Thrombin 1536 HTS; hits were confirmed in this assay)]; type: functional
Cytochrome P450 3A4 = Cytochrome P450 3A4 (Homo sapiens, UniProt P08684); details: Potency;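 also: confirmatory qHTS run detecting inhibitors and substrates of CYP3A4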
Coagulation factor XII = target: T3, Coagulation factor XII (Homo sapiens, UniProt P00748); type: functional;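 also: activated factor XIIa alpha cleaving a fluorogenic AMC peptide substrate; inhibitor potency from loss of enzyme activity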
T3 sequence (P00748 whole entry): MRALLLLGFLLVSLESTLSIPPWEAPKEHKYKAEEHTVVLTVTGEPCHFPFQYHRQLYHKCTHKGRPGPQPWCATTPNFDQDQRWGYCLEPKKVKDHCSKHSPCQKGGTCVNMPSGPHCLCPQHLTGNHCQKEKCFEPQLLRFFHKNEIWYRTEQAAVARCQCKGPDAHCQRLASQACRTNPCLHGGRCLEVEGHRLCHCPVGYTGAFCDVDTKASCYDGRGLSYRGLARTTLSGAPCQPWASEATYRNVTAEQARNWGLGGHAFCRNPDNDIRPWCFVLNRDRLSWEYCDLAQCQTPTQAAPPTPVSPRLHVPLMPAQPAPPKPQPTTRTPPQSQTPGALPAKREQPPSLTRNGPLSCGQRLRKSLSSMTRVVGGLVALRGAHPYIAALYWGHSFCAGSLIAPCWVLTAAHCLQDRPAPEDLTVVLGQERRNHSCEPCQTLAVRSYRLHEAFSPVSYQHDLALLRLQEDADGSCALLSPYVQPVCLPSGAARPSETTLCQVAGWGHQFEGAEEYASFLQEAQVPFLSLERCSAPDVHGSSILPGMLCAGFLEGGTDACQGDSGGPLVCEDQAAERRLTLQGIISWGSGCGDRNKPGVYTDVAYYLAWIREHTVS

[4] = target: T4, Heat shock factor protein 1 (Mus musculus, UniProt P38532); assay: decrease of HSF1-responsive luciferase luminescence – cell-based, NIH3T3, dose retest, confirmation (AID 2382); type: functional;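 also: NIH3T3 fibroblasts with HSF1-driven luciferase reporter stressed by proteasome inhibitor MG132; luminescence from HSF1-driven luciferase expression after 8 hours of MG132 stress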
T4 sequence (P38532 whole entry): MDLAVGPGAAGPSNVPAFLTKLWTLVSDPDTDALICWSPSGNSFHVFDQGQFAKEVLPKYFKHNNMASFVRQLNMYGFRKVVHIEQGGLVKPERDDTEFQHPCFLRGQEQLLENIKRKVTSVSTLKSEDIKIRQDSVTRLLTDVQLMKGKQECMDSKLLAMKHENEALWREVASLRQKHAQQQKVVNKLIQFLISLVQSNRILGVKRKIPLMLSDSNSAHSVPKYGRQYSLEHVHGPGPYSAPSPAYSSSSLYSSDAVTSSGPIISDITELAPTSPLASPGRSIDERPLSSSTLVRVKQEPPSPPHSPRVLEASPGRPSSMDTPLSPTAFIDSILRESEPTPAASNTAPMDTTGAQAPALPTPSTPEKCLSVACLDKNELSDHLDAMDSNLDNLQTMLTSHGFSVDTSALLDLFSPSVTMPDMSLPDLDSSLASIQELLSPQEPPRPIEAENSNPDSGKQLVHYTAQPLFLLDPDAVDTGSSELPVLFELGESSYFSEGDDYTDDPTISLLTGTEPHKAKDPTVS

P388 = assay: cells; type: functional; details: Mus musculus
SN12K1 = assay: cells; type: functional; details: Homo sapiens
P388/ADR = assay: cells; type: functional; details: Mus musculus
Paired box protein Pax-8 = Paired box protein Pax-8 (Homo sapiens, UniProt Q06710); assay: PAX8 transcriptional activity inhibition in RMG-I – RMG-I cells, luciferase, cherry-pick, dose response (AID 687027); type: functional, cell-based;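 also: luciferase reporter driven by Pax8 target thyroperoxidase promoter measured by SteadyGlo luminescence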
[5] = OVCAR-3 cell viability loss – plate reader, dry powder samples, PAX8 inhibitor project, dose response (AID 743044); type: functional, cell-based
[6] = OVCAR8 cell viability loss – plate reader, dry powder samples, PAX8 project, dose response (AID 743197); type: functional, cell-based; details: OVCAR-8
[7] = Luminescence Cell-Based Dose Retest to Confirm Inhibitors of Cancer Stem Cells. [Related pubchem assays (depositor defined):AID2717, AID2721]; type: functional; details: Homo sapiens
[8] = target: Induced myeloid leukemia cell differentiation protein Mcl-1 (Homo sapiens, UniProt Q07820); type: functional
Sequence of Induced myeloid leukemia cell differentiation protein Mcl-1 (Q07820 whole entry): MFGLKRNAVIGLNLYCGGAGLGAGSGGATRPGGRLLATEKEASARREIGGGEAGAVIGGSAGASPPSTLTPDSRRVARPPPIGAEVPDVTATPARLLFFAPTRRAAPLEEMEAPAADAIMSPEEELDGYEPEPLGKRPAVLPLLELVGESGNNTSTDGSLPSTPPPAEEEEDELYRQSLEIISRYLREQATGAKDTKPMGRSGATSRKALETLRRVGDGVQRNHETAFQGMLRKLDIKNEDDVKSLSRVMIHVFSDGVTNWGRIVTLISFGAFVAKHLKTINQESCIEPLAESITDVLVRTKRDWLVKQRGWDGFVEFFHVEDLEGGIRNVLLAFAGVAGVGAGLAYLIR

Sequence of Glyceraldehyde-3-phosphate dehydrogenase (P04406 whole entry): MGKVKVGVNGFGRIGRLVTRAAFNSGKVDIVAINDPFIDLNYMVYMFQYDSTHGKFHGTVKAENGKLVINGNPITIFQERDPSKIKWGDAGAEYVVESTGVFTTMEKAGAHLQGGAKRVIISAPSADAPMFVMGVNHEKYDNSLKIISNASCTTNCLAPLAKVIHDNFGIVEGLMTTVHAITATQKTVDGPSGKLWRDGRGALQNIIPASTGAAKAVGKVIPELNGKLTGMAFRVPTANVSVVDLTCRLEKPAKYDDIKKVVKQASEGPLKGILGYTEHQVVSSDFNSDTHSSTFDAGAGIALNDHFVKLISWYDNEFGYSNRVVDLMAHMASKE
Sequence of Cytochrome P450 3A4 (P08684 whole entry): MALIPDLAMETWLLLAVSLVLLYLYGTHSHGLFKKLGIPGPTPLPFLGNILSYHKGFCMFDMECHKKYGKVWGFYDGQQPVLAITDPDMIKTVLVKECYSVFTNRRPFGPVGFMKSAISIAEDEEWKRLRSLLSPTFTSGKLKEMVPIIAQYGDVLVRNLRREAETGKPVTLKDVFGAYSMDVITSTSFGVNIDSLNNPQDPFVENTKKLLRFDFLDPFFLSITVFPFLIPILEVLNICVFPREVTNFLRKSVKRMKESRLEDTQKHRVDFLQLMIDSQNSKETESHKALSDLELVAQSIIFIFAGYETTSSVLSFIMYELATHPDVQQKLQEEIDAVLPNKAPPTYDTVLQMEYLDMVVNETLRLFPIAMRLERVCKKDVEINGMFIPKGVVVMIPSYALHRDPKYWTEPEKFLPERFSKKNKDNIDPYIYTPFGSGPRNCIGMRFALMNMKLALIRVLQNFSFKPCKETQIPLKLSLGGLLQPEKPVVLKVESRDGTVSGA
Sequence of G-protein coupled receptor 55 (Q9Y2T6 whole entry): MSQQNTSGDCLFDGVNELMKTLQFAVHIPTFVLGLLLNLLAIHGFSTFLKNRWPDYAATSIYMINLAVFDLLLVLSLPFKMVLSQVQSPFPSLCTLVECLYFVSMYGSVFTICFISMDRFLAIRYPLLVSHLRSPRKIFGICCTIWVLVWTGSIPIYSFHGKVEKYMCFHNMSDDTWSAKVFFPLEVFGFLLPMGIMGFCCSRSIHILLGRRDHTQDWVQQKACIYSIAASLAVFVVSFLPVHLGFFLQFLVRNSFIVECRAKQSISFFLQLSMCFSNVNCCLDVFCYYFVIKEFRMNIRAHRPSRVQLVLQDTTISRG
Sequence of Paired box protein Pax-8 (Q06710 whole entry): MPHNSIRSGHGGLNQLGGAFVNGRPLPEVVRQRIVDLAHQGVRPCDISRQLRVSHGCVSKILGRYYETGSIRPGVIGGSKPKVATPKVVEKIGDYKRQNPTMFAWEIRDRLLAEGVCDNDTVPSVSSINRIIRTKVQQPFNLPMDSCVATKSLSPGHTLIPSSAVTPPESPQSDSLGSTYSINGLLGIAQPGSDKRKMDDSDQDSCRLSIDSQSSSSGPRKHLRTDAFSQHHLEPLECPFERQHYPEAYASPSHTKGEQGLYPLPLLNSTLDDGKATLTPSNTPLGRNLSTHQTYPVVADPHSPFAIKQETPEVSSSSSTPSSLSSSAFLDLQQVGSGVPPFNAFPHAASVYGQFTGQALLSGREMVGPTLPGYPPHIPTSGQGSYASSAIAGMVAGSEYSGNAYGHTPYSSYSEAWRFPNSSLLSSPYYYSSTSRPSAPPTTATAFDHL

Compound: Cc1ccc(S(=O)(=O)Nc2cnc3ccccc3c2)cc1
- IC50 [1]: > 100 µM (not active)
- IC50 [2]: 44.9 µM (active)

Compound: CCc1nnc(NC(=O)CSc2nnc(-c3cc4ccccc4cc3O)n2CC)s1
- Ki (fMet-Leu-Phe receptor): 61.1 µM (inactive)

Compound: Clc1ccc2oc3c(Cl)ncnc3c2c1
- IC50 [3]: 6.41 µM (active)

Compound: CCCC(=O)n1nc(-c2cccnc2)nc1NCc1cccs1
- IC50 (Prothrombin): 0.00426 µM (active)

Compound: CC(C)c1ccc2c(c1)CCC1C(C)(C(N)=O)CCCC21C (configuration not stated)
- AC50 (Cytochrome P450 3A4): 20 µM (inconclusive)

Compound: NC(=O)c1ccsc1NC(=O)c1nc(-c2ccccc2)n(-c2ccccc2)n1
- IC50 (Prothrombin): 4.3 µM (active)

Compound: COc1ccc(N(CC(=O)Nc2ccc3c(c2)OCCO3)S(=O)(=O)c2c(C)nn(C)c2C)cc1
- IC50 (Coagulation factor XII): > 50 µM (inactive)

Compound: COc1ccc2c(c1OC)C(=O)N(c1nnc(SC)[nH]1)C2=O
- IC50 [1]: > 100 µM (not active)
- IC50 [2]: 34.1 µM (active)

Compound: Cc1ccc(/C=C2\C(=O)NC(=O)N(CCc3ccc(F)cc3)C2=O)o1
- IC50 [3]: 3.55 µM (active)

Compound: O=C1NC2(CCCCC2)NN1c1ccccc1
- IC50 (Prothrombin): > 50 µM (not active)

Compound: COCCN(CCOC)c1nc(C)nc2c1nc(-c1ccccc1)n2CCN1CCCC1
- AC50 (Cytochrome P450 3A4): 20 µM (inconclusive)

Compound: O=C(C1=C(O)C(=O)N(CCc2ccccc2)C1c1cccnc1)c1ccco1 (configuration not stated)
- Ki (fMet-Leu-Phe receptor): > 66.7 µM (inactive)

Compound: CC(C)=CCC/C(C)=C/C=C/C1=CC2(C)CC1(C)C(/C=C(\C)CCC=C(C)C)CC2=O (configuration not stated)
- AC50 (Cytochrome P450 3A4): 3.98 µM (inconclusive)

Compound: O=C(CSC1CCCCC1)Nc1nccs1
- IC50 (Prothrombin): > 50 µM (not active)

Compound: O=C(O)CC(Cc1ccc(Br)cc1)C(=O)O (configuration not stated)
- IC50 (Coagulation factor XII): > 50 µM (inactive)
- EC50 [4]: > 195 µM (not active)

Compound: CCN(CC)C(=O)c1cc(-c2cc(F)c(Cl)cc2Cl)n[nH]1
- IC50 [1]: > 10 µM (inconclusive)
- IC50 [2]: 3.63 µM (active)

Compound: CC(CN1C(C)CCCC1C)OC(=O)c1ccc(Cl)cc1Cl (configuration not stated)
- IC50 (Coagulation factor XII): > 50 µM (inactive)

Compound: CCC(CC)c1nnc(NC(=O)Oc2ccccc2)s1
- IC50 (Coagulation factor XII): > 50 µM (inactive)

Compound: O=C(C1=C(O)C(=O)N(CCCN2CCOCC2)C1c1ccccn1)c1cc2ccccc2o1 (configuration not stated)
- Ki (fMet-Leu-Phe receptor): 60.7 µM (inactive)

Compound: CC(=O)n1nc(-c2ccc(Cl)cc2)nc1NCc1ccco1
- IC50 (Prothrombin): 1.44 µM (active)

Compound: Cc1nn2c(CN(C(=O)CN3CCOCC3)c3ccccc3)nnc2c2ccccc12
- IC50 (Coagulation factor XII): > 50 µM (inactive)
- EC50 [4]: > 195 µM (not active)

Compound: CN(N=O)C(=O)N[C@H]1C(O)O[C@H](CO)[C@@H](O)[C@@H]1O (some centres not stated)
- GI50 (P388): 451 µM (inactive)
- GI50 (SN12K1): 532 µM (inactive)
- GI50 (P388/ADR): 484 µM (inactive)

Compound: Nc1ccnn1Cc1cccs1
- IC50 (Coagulation factor XII): > 50 µM (inactive)

Compound: c1ccc(Cn2cnc(-c3cccnc3)c2)cc1
- IC50 [1]: > 100 µM (not active)
- IC50 [2]: > 100 µM (inactive)

Compound: COC(=O)[C@H](C(C)C)n1c(C)c(C(C)=O)c(C(C)=O)c1C
- Ki (fMet-Leu-Phe receptor): > 66.7 µM (inactive)

Compound: C#CCNC(=O)CCC(N)C(=O)O (configuration not stated)
- GI50 (P388): > 100 µM (inactive)
- GI50 (SN12K1): > 100 µM (inactive)
- GI50 (P388/ADR): > 100 µM (inactive)

Compound: C[C@H](N)C(=O)N[C@@H]1[C@H]2C(=C(O)C[C@@H](O)[C@@H]2O)C(=O)O[C@@H]1C
- GI50 (P388): > 53.2 µM (inactive)
- GI50 (SN12K1): > 100 µM (inactive)
- GI50 (P388/ADR): > 73.3 µM (inactive)

Compound: COC1=C(C)C(=O)C2=C(C1=O)[C@@H]1[C@@H]3Cc4c(OC(=O)CO)c(C)c(OC)c(O)c4[C@H](CNC(=O)C(C)=O)N3[C@@H](C#N)[C@H](C2)N1C
- GI50 (P388): < 0.01 µM (active)
- GI50 (SN12K1): 0.0358 µM (active)
- GI50 (P388/ADR): 0.125 µM (active)

Compound: Cc1ccc(S(=O)(=O)Nc2ccc3c(c2)C(=O)N([C@@H](C)CO)C[C@@H](C)[C@H](CN(C)Cc2ccc(C(F)(F)F)cc2)OCCCC[C@H](C)O3)cc1
- AC50 (Paired box protein Pax-8): 6.38 µM (active)
- AC50 [5]: 4.07 µM (active)
- AC50 [6]: > 70 µM (inactive)

Compound: COc1ccc(-c2ccc3c(c2)[C@@H]2[C@@H](CCN2S(=O)(=O)c2ccc(OC)cc2)[C@@H](CO)N3C)cc1
- AC50 (Paired box protein Pax-8): 12.3 µM (active)
- AC50 [5]: 31.2 µM (active)
- AC50 [6]: 51.2 µM (active)

Compound: CC1[C@@]2(O[C@@H]3C=C4C5CCC6Cc7nc8c(nc7C[C@@]6(C)C5C[C@H](O)[C@@]4(C)[C@]13O)CC1CCc3c(cc4c5c3C(O)C[C@H]5[C@@H](C)C3(O4)OC(C)(C)CC3O)[C@]1(C)C8)O[C@@](C)(CO)C[C@@H]2O (some centres not stated)
- GI50 (P388): 0.103 µM (active)
- GI50 (SN12K1): 0.0404 µM (active)
- GI50 (P388/ADR): 2.69 µM (inactive)

Compound: CCN(CC)c1ccc2c(C)cc(=O)oc2c1
- AC50 (Cytochrome P450 3A4): 20 µM (inconclusive)

Compound: COc1cc(/C=N/NC(=O)c2cc(C34CC5CC(CC(C5)C3)C4)[nH]n2)ccc1O
- IC50 [3]: 2.69 µM (active)
- AC50 [7]: 0.699 µM (active)

Compound: COc1cc(/C=N/Nc2n[nH]c3c4ccccc4nc-3n2)ccc1O
- IC50 [8]: 3.9 µM (active)

Compound: Nc1ccn(C2OC(CO)C(O)C2O)c(=O)c1 (configuration not stated)
- GI50 (P388): 57 µM (inactive)
- GI50 (SN12K1): 344 µM (inactive)
